Assay results reported in article PMC11027099 (ACS Chemical Neuroscience, 2024).
pEC50: −log10 of the molar value. Like-named read-outs stand apart in the source and are kept apart here.

Columns and labels:
[1] = target: T1, rod CNG channel (CNGA1/CNGB1a) (Bos taurus, UniProt Q00194+Q28181); test: inside-out patch clamp, Xenopus oocytes, Hill fit; assay type: cell-based
T1 construct: heterotetramer 3 CNGA1 : 1 CNGB1a; subunits in pGEMHE, cRNA ratio 1:4, expressed in Xenopus laevis oocytes; inside-out patches

[2] = target: T2, cone CNG channel (CNGA3/CNGB3) (Homo sapiens, UniProt Q16281+Q9NQW8); test: inside-out patch clamp, Xenopus oocytes, Hill fit; assay type: cell-based
T2 construct: heterotetramer 3 CNGA3 : 1 CNGB3; subunits in pGEMHE, cRNA ratio 1:2.5, expressed in Xenopus laevis oocytes; inside-out patches
T2 sequence (Q16281 1-694): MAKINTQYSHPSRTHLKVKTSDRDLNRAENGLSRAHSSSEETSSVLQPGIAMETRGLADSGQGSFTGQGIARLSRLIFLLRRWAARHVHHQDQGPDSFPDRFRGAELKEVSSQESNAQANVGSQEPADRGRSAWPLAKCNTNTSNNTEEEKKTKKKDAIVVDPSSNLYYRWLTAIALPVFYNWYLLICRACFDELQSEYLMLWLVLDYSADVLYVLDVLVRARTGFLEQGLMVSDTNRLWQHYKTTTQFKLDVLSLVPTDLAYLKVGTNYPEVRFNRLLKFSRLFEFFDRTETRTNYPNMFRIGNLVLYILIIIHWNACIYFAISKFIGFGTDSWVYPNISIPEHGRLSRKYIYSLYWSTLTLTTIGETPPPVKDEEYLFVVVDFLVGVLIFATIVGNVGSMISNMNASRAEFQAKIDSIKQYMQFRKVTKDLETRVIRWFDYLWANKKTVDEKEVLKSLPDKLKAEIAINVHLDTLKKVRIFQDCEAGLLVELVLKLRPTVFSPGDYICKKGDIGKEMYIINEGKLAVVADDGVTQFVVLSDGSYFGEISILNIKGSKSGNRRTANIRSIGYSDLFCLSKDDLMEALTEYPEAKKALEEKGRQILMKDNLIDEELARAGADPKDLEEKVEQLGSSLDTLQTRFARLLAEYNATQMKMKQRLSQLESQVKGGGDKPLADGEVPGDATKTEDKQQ
T2 sequence (Q9NQW8 1-809): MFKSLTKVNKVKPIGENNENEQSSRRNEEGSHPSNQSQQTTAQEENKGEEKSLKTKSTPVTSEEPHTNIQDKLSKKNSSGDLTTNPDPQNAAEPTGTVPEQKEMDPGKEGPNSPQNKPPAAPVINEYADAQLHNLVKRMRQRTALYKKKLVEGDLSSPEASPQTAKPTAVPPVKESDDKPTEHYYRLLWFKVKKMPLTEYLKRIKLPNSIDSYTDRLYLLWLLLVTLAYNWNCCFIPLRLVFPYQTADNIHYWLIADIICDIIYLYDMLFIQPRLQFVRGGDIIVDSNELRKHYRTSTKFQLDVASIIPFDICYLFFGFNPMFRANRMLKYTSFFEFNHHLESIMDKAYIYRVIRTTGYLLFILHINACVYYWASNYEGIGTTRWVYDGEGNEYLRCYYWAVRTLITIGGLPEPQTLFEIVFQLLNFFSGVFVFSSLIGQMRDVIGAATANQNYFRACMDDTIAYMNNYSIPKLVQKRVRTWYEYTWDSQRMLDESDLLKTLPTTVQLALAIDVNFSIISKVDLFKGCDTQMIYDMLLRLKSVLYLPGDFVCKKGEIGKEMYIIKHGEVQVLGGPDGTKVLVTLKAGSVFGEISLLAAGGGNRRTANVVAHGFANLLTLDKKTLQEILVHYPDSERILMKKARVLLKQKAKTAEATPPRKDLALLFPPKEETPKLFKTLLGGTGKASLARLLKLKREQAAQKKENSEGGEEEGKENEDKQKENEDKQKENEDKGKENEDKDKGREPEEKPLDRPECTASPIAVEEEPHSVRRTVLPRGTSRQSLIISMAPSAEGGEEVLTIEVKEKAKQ

[3] = target: T1, rod CNG channel (CNGA1/CNGB1a); test: inside-out patch clamp, Xenopus oocytes, current relative to saturating cGMP; assay type: biochemical; settings: partial agonist; up to 5 mM analogue vs 3 mM cGMP, pH 7.4, room temperature
[4] = target: T2, cone CNG channel (CNGA3/CNGB3); test: as above; assay type: biochemical; settings: partial agonist; saturating analogue vs 1 mM cGMP, pH 7.4, room temperature

T1 sequence (Q00194 whole entry): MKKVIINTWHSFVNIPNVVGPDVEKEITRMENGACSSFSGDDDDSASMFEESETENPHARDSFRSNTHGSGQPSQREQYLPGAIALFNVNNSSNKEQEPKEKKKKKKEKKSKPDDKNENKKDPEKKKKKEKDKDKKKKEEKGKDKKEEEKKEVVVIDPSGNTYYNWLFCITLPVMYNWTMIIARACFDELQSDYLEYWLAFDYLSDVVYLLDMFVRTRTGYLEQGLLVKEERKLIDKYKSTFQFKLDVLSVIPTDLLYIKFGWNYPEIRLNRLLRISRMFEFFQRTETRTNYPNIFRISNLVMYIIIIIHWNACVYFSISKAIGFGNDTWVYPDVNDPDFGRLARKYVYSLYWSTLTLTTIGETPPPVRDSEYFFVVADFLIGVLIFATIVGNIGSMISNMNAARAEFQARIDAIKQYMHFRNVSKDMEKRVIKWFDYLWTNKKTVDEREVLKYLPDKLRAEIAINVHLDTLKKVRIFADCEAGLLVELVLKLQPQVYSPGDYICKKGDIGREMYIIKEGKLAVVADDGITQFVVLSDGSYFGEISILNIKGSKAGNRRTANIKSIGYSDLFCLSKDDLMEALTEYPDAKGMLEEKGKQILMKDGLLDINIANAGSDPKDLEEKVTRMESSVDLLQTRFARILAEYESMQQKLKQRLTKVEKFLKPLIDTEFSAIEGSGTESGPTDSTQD
T1 sequence (Q28181 whole entry): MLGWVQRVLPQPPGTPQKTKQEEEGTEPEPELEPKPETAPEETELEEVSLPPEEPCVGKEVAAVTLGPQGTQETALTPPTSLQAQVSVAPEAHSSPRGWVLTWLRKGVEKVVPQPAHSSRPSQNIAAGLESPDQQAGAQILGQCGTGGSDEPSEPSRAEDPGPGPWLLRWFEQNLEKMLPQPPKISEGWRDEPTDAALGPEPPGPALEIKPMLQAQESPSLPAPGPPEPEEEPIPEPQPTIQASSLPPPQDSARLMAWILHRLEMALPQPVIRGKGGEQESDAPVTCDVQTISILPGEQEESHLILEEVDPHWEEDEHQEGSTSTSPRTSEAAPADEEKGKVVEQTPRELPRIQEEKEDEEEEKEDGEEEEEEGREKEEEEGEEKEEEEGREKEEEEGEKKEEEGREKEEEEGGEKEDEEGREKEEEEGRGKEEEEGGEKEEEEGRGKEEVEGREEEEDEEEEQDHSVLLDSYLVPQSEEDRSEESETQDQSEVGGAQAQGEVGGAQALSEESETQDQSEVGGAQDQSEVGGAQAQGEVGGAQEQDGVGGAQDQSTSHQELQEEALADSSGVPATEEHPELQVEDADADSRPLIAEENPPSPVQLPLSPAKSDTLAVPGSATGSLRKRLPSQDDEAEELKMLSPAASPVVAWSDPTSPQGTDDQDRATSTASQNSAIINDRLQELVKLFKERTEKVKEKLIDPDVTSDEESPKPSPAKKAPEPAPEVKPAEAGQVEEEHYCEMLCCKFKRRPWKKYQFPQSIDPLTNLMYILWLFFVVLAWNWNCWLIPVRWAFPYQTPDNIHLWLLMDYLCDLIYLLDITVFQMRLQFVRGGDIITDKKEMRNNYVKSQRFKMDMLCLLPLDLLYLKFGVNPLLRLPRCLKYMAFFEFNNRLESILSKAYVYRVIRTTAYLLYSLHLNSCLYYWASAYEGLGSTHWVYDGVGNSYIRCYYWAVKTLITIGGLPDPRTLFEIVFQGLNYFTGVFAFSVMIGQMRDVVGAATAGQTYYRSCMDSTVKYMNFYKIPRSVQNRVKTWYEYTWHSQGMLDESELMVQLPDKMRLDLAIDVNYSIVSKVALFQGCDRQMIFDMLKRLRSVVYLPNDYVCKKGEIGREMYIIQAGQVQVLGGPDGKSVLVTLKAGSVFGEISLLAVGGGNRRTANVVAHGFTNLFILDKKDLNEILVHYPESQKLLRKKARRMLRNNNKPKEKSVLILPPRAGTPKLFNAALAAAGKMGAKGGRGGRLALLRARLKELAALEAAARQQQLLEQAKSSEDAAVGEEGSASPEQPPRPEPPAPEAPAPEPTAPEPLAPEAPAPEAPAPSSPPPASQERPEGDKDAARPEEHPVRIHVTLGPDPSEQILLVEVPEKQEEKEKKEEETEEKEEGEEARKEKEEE

pEC50 [1]	pEC50 ([2]; channel activation (agonist), +100 mV, pH 7.4, room temperature)	pEC50 [2]	% activation relative to cGMP [3]	Compound	% activation relative to cGMP [4]
5.21	5.98	–	–	Nc1nc2c(nc(Br)n2[C@@H]2O[C@@H]3COP(=O)(O)O[C@H]3[C@H]2O)c(=O)[nH]1 [compound 1, 8-Br-cGMP]	–
4.37	–	3.88	–	Nc1nc2c(nc(Sc3ccc(Cl)cc3)n2[C@@H]2O[C@@H]3CO[P@](O)(=S)O[C@H]3[C@H]2O)c(=O)[nH]1 [compound 7, Sp-8-pCPT-cGMPS]	–
–	–	–	~ 41.2%	O=c1c2ncn([C@@H]3O[C@@H]4COP(=O)(O)O[C@H]4[C@H]3O)c2nc2[nH]c(-c3ccccc3)cn12 [compound 3, PET-cGMP]	PET-cGMP, Rp-cGMPS, Sp-cGMPS, and Sp-8-pCPT-cGMPS, was only partially effective when activating cone CNG channels
–	–	5.54	~ 62.8%	Nc1nc2c(ncn2[C@@H]2O[C@@H]3CO[P@](O)(=S)O[C@H]3[C@H]2O)c(=O)[nH]1 [compound 5, Sp-cGMPS]	–
6.11	–	7.05	–	Nc1nc(=O)c2nc(Sc3ccc(Cl)cc3)n([C@@H]3O[C@@H]4COP(=O)(O)O[C@H]4[C@H]3O)c2[nH]1 [compound 2, 8-pCPT-cGMP]	–
–	–	–	~ 11%	Nc1nc2c(ncn2[C@@H]2O[C@@H]3COP(O)(=S)O[C@H]3[C@H]2O)c(=O)[nH]1 (stereo partly shown) [compound 4, Rp-cGMPS]	~ 43.6%
–	–	4.73	–	Nc1nc2c(ncn2[C@@H]2O[C@@H]3COP(=O)(O)O[C@H]3[C@H]2O)c(=O)[nH]1 [cGMP]	–
